From PubChem BioAssay (NCI)
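Where inhibition never reached the appropriate level, the endpoint shown equals the highest concentration tested. Otherwise, values were interpolated linearly from a five-concentration, 48-hour dose response in 96-well plates. TGI denotes the concentration required for complete inhibition of growth.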

Key:
Assay in all cases: NCI tumour cell line growth inhibition, 48 h
786-0 renal = tested on: 786-0 renal
A549 NSCLC = tested on: A549 NSCLC
ACHN renal = tested on: ACHN renal
BT-549 breast = tested on: BT-549 breast
CAKI-1 renal = tested on: CAKI-1 renal
CCRF-CEM leukemia = tested on: CCRF-CEM leukemia
COLO 205 colon = tested on: COLO 205 colon
DU-145 prostate = tested on: DU-145 prostate
EKVX NSCLC = tested on: EKVX NSCLC
HCT-116 colon = tested on: HCT-116 colon
HCT-15 colon = tested on: HCT-15 colon
HOP-62 NSCLC = tested on: HOP-62 NSCLC
HOP-92 NSCLC = tested on: HOP-92 NSCLC
HS 578T breast = tested on: HS 578T breast
HT29 colon = tested on: HT29 colon
IGROV1 ovarian = tested on: IGROV1 ovarian
K-562 leukemia = tested on: K-562 leukemia
KM12 colon = tested on: KM12 colon
LOX IMVI melanoma = tested on: LOX IMVI melanoma
M14 melanoma = tested on: M14 melanoma
MALME-3M melanoma = tested on: MALME-3M melanoma
MCF7 breast = tested on: MCF7 breast
MDA-MB-231 breast = tested on: MDA-MB-231 breast
MDA-MB-435 = tested on: MDA-MB-435
MOLT-4 leukemia = tested on: MOLT-4 leukemia
NCI-H226 lung = tested on: NCI-H226 lung
NCI-H23 lung = tested on: NCI-H23 lung
NCI-H460 lung = tested on: NCI-H460 lung
NCI-H522 lung = tested on: NCI-H522 lung
NCI/ADR-RES ovarian = tested on: NCI/ADR-RES ovarian
OVCAR-4 ovarian = tested on: OVCAR-4 ovarian
OVCAR-5 ovarian = tested on: OVCAR-5 ovarian
OVCAR-8 ovarian = tested on: OVCAR-8 ovarian
PC-3 prostate = tested on: PC-3 prostate
RPMI-8226 leukemia = tested on: RPMI-8226 leukemia
SF-268 CNS = tested on: SF-268 CNS
SF-295 CNS = tested on: SF-295 CNS
SF-539 CNS = tested on: SF-539 CNS
SK-MEL-2 melanoma = tested on: SK-MEL-2 melanoma
SK-MEL-28 melanoma = tested on: SK-MEL-28 melanoma
SK-MEL-5 melanoma = tested on: SK-MEL-5 melanoma
SK-OV-3 ovarian = tested on: SK-OV-3 ovarian
SN12C renal = tested on: SN12C renal
SNB-19 CNS = tested on: SNB-19 CNS
SNB-75 CNS = tested on: SNB-75 CNS
SR leukemia = tested on: SR leukemia
SW-620 colon = tested on: SW-620 colon
T-47D breast = tested on: T-47D breast
TK-10 renal = tested on: TK-10 renal
U251 CNS = tested on: U251 CNS
UACC-257 melanoma = tested on: UACC-257 melanoma
UACC-62 melanoma = tested on: UACC-62 melanoma
UO-31 renal = tested on: UO-31 renal
HCC-2998 colon = tested on: HCC-2998 colon
HL-60(TB) leukemia = tested on: HL-60(TB) leukemia
OVCAR-3 ovarian = tested on: OVCAR-3 ovarian
RXF 393 renal = tested on: RXF 393 renal

In the case of CCCCCCCCCOC(=O)c1cnc(Cl)cn1, the TGI (786-0 renal) is reported as greater than 100 µM, the TGI (A549 NSCLC) is reported as 64.8 µM and the TGI (ACHN renal) is reported as 33.5 µM. For the same compound, the TGI (BT-549 breast) was 63.3 µM, the TGI (CAKI-1 renal) was 31.8 µM and the TGI (CCRF-CEM leukemia) was greater than 100 µM. It also gave a TGI (COLO 205 colon) of 51.1 µM, a TGI (DU-145 prostate) of 33.8 µM and a TGI (EKVX NSCLC) of 41.6 µM. The TGI (HCT-116 colon) was 31.5 µM, the TGI (HCT-15 colon) was 32 µM and the TGI (HOP-62 NSCLC) was 44.9 µM. The TGI (HOP-92 NSCLC) was greater than 100 µM, the TGI (HS 578T breast) was 68 µM and the TGI (HT29 colon) was 86.1 µM. The TGI (IGROV1 ovarian) was 36 µM, the TGI (K-562 leukemia) was greater than 100 µM and the TGI (KM12 colon) was 33.4 µM. The TGI (LOX IMVI melanoma) was 34.4 µM, the TGI (M14 melanoma) was 36.3 µM and the TGI (MALME-3M melanoma) was 39.4 µM. It also gave a TGI (MCF7 breast) of 57.7 µM, a TGI (MDA-MB-231 breast) of 35.6 µM and a TGI (MDA-MB-435) of 40.8 µM. For the same compound, the TGI (MOLT-4 leukemia) was greater than 100 µM, the TGI (NCI-H226 lung) was 32.7 µM and the TGI (NCI-H23 lung) was 33 µM. The TGI (NCI-H460 lung) was 41.5 µM, the TGI (NCI-H522 lung) was 36.1 µM and the TGI (NCI/ADR-RES ovarian) was 48.2 µM. The TGI (OVCAR-4 ovarian) was 71.1 µM, the TGI (OVCAR-5 ovarian) was 70.8 µM and the TGI (OVCAR-8 ovarian) was 69.6 µM. The TGI (PC-3 prostate) was 24 µM, the TGI (RPMI-8226 leukemia) was 63.5 µM and the TGI (SF-268 CNS) was 46.3 µM. It also gave a TGI (SF-295 CNS) of 34.6 µM, a TGI (SF-539 CNS) of 58.1 µM and a TGI (SK-MEL-2 melanoma) of 40.2 µM. It also gave a TGI (SK-MEL-28 melanoma) of 52.7 µM, a TGI (SK-MEL-5 melanoma) of 32.9 µM and a TGI (SK-OV-3 ovarian) greater than 100 µM. It also gave a TGI (SN12C renal) of 36.9 µM, a TGI (SNB-19 CNS) of 47.5 µM and a TGI (SNB-75 CNS) of 51.5 µM. It also gave a TGI (SR leukemia) greater than 100 µM, a TGI (SW-620 colon) of 32.5 µM and a TGI (T-47D breast) of 51.2 µM. The TGI (TK-10 renal) was 43.9 µM, the TGI (U251 CNS) was 33.9 µM and the TGI (UACC-257 melanoma) was 45.6 µM. For the same compound, the TGI (UACC-62 melanoma) was 33.3 µM and the TGI (UO-31 renal) was 34.4 µM.
CC(C(=O)N1C(=O)N(C(=O)C(C)C(O)c2ccccc2)C(c2ccccc2)C1c1ccccc1)C(O)c1ccccc1 (configuration not stated) was tested, and the TGI (786-0 renal) was greater than 100 µM, the TGI (A549 NSCLC) was greater than 100 µM and the TGI (ACHN renal) was greater than 100 µM. The TGI (BT-549 breast) was 38.8 µM, the TGI (CCRF-CEM leukemia) was 32.2 µM and the TGI (COLO 205 colon) was 28.1 µM. For the same compound, the TGI (DU-145 prostate) was greater than 100 µM, the TGI (HCC-2998 colon) was greater than 100 µM and the TGI (HCT-116 colon) was 26.7 µM. For the same compound, the TGI (HCT-15 colon) was greater than 100 µM, the TGI (HL-60(TB) leukemia) was 6.79 µM and the TGI (HOP-62 NSCLC) was greater than 100 µM. The TGI (HOP-92 NSCLC) was 40.4 µM, the TGI (HS 578T breast) was 95.1 µM and the TGI (HT29 colon) was 18.8 µM. The TGI (IGROV1 ovarian) was greater than 100 µM, the TGI (K-562 leukemia) was 41.6 µM and the TGI (KM12 colon) was 5.69 µM. For the same compound, the TGI (LOX IMVI melanoma) was 24.2 µM, the TGI (M14 melanoma) was 33.4 µM and the TGI (MALME-3M melanoma) was 32.3 µM. For the same compound, the TGI (MCF7 breast) was greater than 100 µM, the TGI (MDA-MB-231 breast) was 77.9 µM and the TGI (MDA-MB-435) was 61.2 µM. The TGI (MOLT-4 leukemia) was 11.9 µM, the TGI (NCI-H226 lung) was 34.3 µM and the TGI (NCI-H23 lung) was greater than 100 µM. For the same compound, the TGI (NCI-H460 lung) was 19.9 µM, the TGI (NCI-H522 lung) was 48.4 µM and the TGI (OVCAR-3 ovarian) was 31.5 µM. It also gave a TGI (OVCAR-4 ovarian) greater than 100 µM, a TGI (OVCAR-8 ovarian) greater than 100 µM and a TGI (RPMI-8226 leukemia) of 13.6 µM. The TGI (RXF 393 renal) was 28.1 µM, the TGI (SF-268 CNS) was greater than 100 µM and the TGI (SF-295 CNS) was 10.8 µM. The TGI (SF-539 CNS) was 22.6 µM, the TGI (SK-MEL-2 melanoma) was 50.2 µM and the TGI (SK-MEL-28 melanoma) was 40.2 µM. The TGI (SN12C renal) was 37.3 µM, the TGI (SNB-19 CNS) was greater than 100 µM and the TGI (SNB-75 CNS) was 54.8 µM. It also gave a TGI (SR leukemia) of 14.5 µM, a TGI (SW-620 colon) greater than 100 µM and a TGI (T-47D breast) greater than 100 µM. For the same compound, the TGI (TK-10 renal) was greater than 100 µM, the TGI (U251 CNS) was 27.8 µM and the TGI (UACC-62 melanoma) was 40.5 µM. It also gave a TGI (UO-31 renal) of 41.1 µM.
